Data: US20250152524A1, “TOPICAL COMPOSITIONS AND METHODS” (VasoDynamics Limited, priority 2022, published 2025)
“And” between values parts separate entries of the source, which are not always exact repeats. Equal entries are not always repeated. Structures can show the parent of a compound that is named as a salt. Where two headings read alike, the source gives them in different places.

How the values were obtained:
radiation dermatitis = conditions: cited from earlier work; for relative potencies of the topically applied vasoconstrictors (suppression of radiation dermatitis): 75 μl in ethanol:water (70:30) on 4.5 cm^2 shaved skin 12 min before 17.2 Gy; for potency in comparison to epinephrine: Fahl, 2016
cancerous tissues = conditions: topical application, three xenograft tumour mice models; cited from earlier work
[1] = tested on: mucositis, dermatitis and alopecia; conditions: topically applied, animal models; cited from earlier work
[2] = HCl titration of L-epinephrine free base in orotopical delivery vehicle: pH and appearance; type: physicochemical
Procedure: 18 hours later, the clear solution had developed a pink colour (consistent with adrenochrome formation, an oxidative epinephrine metabolite) and flocculant, re-precipitated material had appeared on the surface of the liquid.
An abrupt drop in pH occurred at pH 6.10 in which the turbidity also immediately clarified. Table 2 provides a summary of the pH values from this titration, and indicates the experimentally determined moles of HCl that were required to achieve pH 2.50 in this specific formulation

oral mucosa tissue = assay: Lip blanch response after topical application of 1.0 ml to lips (Example 1); type: in vivo, human
[3] = Nutman et al., Crit Care Med 1994; cited from earlier work
[4] = for μmols retained in oropharyngeal cavity (A × 0.24): 12.5 ml administered; for Optimum L-Epinephrine Topical Dose (μmols/cm^2): 12.5 ml, surface area 188 cm^2
Procedure: In these experiments, three human volunteer subjects were provided vials containing solution of 5 mM phenylephrine HCl dissolved in our orotopical delivery vehicle, and they were instructed to: • i) deliver the vial contents into their mouths; • ii) ii) swish the liquid in their mouths, pausing to gargle twice for five seconds; and • iii) at the specified time spit out the liquid into a glass vial.
The volume administered and the volume spit out by each test subject were recorded, and HPLC analysis of the phenylephrine concentration in the administered solution and the solutions spit out by each of the three volunteer subjects were determined.

squamous human skin = conditions: 3 mg/ml
[5] = Stability of pharmaceutical composition with around 20% wt/vol oxygen (Example 9); type: physicochemical; conditions: 5 mM (0.92 mg/ml)
Procedure: The stability study samples were stored at the stability incubator chambers with various temperature and humidity conditions. At indicated time points, pulled samples were assessed on items such as Appearance, Identification, Colour of solution, Clarity of solutions, pH, Assay, Related Substances, Ethanol and Sodium Metabisulfite content for L-epinephrine solution.

submucosal blood vessels = tested on: submucosal blood vessels
Procedure: 2. While stirring, 2-5 N HCl was added to achieve a pH of 2.5.
3. […] The subject swished the 12.5 ml of formulation, gargling twice for 5 seconds each, for 2.0 minutes, and then spit out the formulation.

[6] = 5 mM × 12.5 ml administered, one line per subject, HCl

With `CNC[C@H](O)c1cccc(O)c1` [phenylephrine] as the compound, how does the “relative potencies of the topically applied vasoconstrictors (suppression of radiation dermatitis)” value (radiation dermatitis) read?
The value was 0.2.

What about the “potency in comparison to epinephrine” value (radiation dermatitis) of the same compound?
Its value is “one fifth”.

What about the “interference to the curative radiation effect to cancerous tissues” value (cancerous tissues) of the same compound?
Its value is “no interference”.

What about the “prevention of mucositis, dermatitis and alopecia induced by radiation” value [1] of the same compound?
The value was “successful outcome”.

For `CNC[C@H](O)c1ccc(O)c(O)c1` [L-epinephrine], which appearance of solution ([2]; at pH 2.50) is on record?
Its appearance of solution is “clear and colourless”.

What about the appearance of solution ([2]; at pH 4.95) of the same compound?
The appearance of solution was “clear and colourless”.

What about the appearance of solution ([2]; pH 2.50 solution, 48 hrs later) of the same compound?
The appearance of solution was “clear and colourless”.

What about the appearance of solution ([2]; pH 4.95 solution, 18 hours later) of the same compound?
The appearance of solution was “pink colour”.

And the “time to see a robust lip blanch response” value (oral mucosa tissue; solution at pH 2.50, 20 mM, 1.0 ml on lips)?
The value was 8 min.

And the “time to see a discernible lip blanch response” value (oral mucosa tissue; solution at pH 4.95, 1.0 ml on lips)?
Its value is ~20 min.

And the “2N HCl added to adjust to pH 2.33 (ml/l)” value (L-epi conc 0.92 mg/ml)?
The value was 5.36 ml/l.

What about the “pH without addition of L-epi” value (L-epi conc 0.92 mg/ml) of the same compound?
The value was 4.32.

What about the “2N HCl added to adjust to pH 2.33 (ml/l)” value (L-epi conc 5.50 mg/ml) of the same compound?
The value was 11.88 ml/l.

And the “pH without addition of L-epi” value (L-epi conc 5.50 mg/ml)?
The value was 7.10.

And the “potency versus racemic +/−epinephrine HCl” value [3]?
Its value is “twice as potent”.

What about the “share of L-epinephrine dose from the orotopical solution delivered to oral mucosa” value ([4]; 1.8 mg/ml or 3.6 mg/ml administered to mouths of adult humans) of the same compound?
Its value is 20-30%.

And the “μmols retained in oropharyngeal cavity (A × 0.24)” value ([4]; 10 mM (1.8 mg/ml))?
Its value is 30 μmols.

And the “Optimum L-Epinephrine Topical Dose (μmols/cm^2)” value ([4]; 10 mM (1.8 mg/ml))?
The value was 0.160 μmols/cm^2.

What about the “μmols retained in oropharyngeal cavity (A × 0.24)” value ([4]; 20 mM (3.6 mg/ml)) of the same compound?
Its value is 60 μmols.

And the “Optimum L-Epinephrine Topical Dose (μmols/cm^2)” value ([4]; 20 mM (3.6 mg/ml))?
The value was 0.320 μmols/cm^2.

What about the “duration of blanching after dermal topical application” value (squamous human skin) of the same compound?
The value was “about 40 minutes”.

And the single impurity ([5]; 40° C. for 1 month)?
Its single impurity is ~1.7%.

What about the total impurities ([5]; 40° C. for 1 month) of the same compound?
The total impurities was 3.8%.

And the “concentration of antioxidant sodium metabisulfite” value ([5]; 60° C. and 40° C.)?
The value was “decreasing trend”.

And the “decrease of concentration of L-epinephrine” value ([5]; 60° C. stress condition)?
The value was “about 18%”.

What about the sample colour ([5]; 60° C. stress condition) of the same compound?
Its sample colour is “light brown”.

And the single impurity ([5]; 60° C. stress condition)?
The single impurity was “more than 8%”.

What about the total impurities ([5]; 60° C. stress condition) of the same compound?
Its total impurities is “more than 17%”.

What about the “lip blanching (photos)” value (submucosal blood vessels; 5.5 mg/ml solution on the lower lip) of the same compound?
Its value is “blanching”.

And the lip blanch response (submucosal blood vessels; 5 minutes after initiation of gargling, 12.5 ml, pH 2.5)?
The lip blanch response was “clear, robust blanch response”.

What about the “time within which robust mucosal blanch was induced” value (submucosal blood vessels; four healthy volunteers, 0.9-5.5 mg/ml) of the same compound?
The value was 5 to 60 min.

Which “relative potencies of the topically applied vasoconstrictors (suppression of radiation dermatitis)” value (radiation dermatitis) does the source give for `NC[C@H](O)c1ccc(O)c(O)c1` [norepinephrine] here?
The value was 0.5.

What about the “potency in comparison to epinephrine” value (radiation dermatitis) of the same compound?
The value was “half”.

And the “interference to the curative radiation effect to cancerous tissues” value (cancerous tissues)?
The value was “no interference”.

And the “prevention of mucositis, dermatitis and alopecia induced by radiation” value [1]?
Its value is “successful outcome”.

What does the source list for `CNC[C@H](O)c1ccc(O)c(O)c1` [epinephrine]?
relative potencies of the topically applied vasoconstrictors (suppression of radiation dermatitis) (radiation dermatitis): 1; interference to the curative radiation effect to cancerous tissues (cancerous tissues): no interference; prevention of mucositis, dermatitis and alopecia induced by radiation [1]: successful outcome

With `CNC[C@H](O)c1cccc(O)c1` [PhE-HCl, phenylephrine HCl] as the compound, how does the “Spit Out PhE-HCl mg/ml (hplc) × ml B” value ([4]; 5 mM × 12.5 ml (12.8 mg) administered, one line per subject, mean in brackets, HCl) read?
The value was “(10.59) mg/ml × ml and 9.23, 9.62 (9.42) mg/ml × ml and 8.91, 9.51 (9.21) mg/ml × ml”.

And the “% of Administered Dose Spit Out B/A × 100” value [4, 6]?
Its value is 74% and 72% and 83%.

And the “% of Orotopical PhE-HCl Dose Delivered to Oral Surfaces” value [4, 6]?
Its value is 26% and 28% and 17%.

And the “mg PhE-HCl Actually Delivered” value [4, 6]?
Its value is 3.3 mg and 3.6 mg and 2.2 mg.
